Assay [1] has as its system IL-12– and IL-23–dependent phosphorylation of STAT4 and STAT3. Also noted: method as in PMID 31341059. The following applies: cited from earlier work.
Assay [2] has as its target T1, Biotinylated recombinant rat IL23R (rIL23R^biot, hGH.ratIL23R.24-317.GS.Avi.TEV.8His) (rat, UniProt F1LX96 24-317, biotinylated (TurboBiotinylase)).
T1 construct: rat IL-23 receptor subunit IL-23R, extracellular domain, residues 24-317, from the construct name hGH.ratIL23R.24-317.GS.Avi.TEV.8His; A GS linker stands between the receptor and the Avi tag; The 8His tag follows a TEV site; also called rat IL-23R ECD; not shown: Avi, C-terminal, kept; His8, C-terminal, cleaved
T1 sequence (looked up): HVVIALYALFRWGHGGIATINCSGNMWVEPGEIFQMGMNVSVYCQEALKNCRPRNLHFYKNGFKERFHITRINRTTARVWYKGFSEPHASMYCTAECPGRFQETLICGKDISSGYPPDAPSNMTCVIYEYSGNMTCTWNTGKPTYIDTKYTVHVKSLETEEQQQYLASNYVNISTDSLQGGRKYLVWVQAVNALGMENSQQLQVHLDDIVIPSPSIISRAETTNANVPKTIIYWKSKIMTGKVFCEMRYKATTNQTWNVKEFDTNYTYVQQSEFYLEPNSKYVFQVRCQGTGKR
The assay can be described thus: SPR; ~2500 RU biotinylated rat IL-23R captured on a streptavidin chip; JNJ-77242113 injected at multiple concentrations; PBS, 0.05% P20, 5% DMSO; 37 °C; association 150 s, dissociation 2000 s; Biacore 8K+, parallel kinetics, 1:1 binding model. The following applies: both partners purified.

Values joined by “and” are separate entries in the source; they are usually repeats but may differ in a detail not shown here. Equal entries are not always repeated. Positions of bridges follow the written chain, without caps; N, C: chain ends. Non-standard residues stand in square brackets, D forms with d. Trp(7-Me) = Cc1cccc2c(C[C@H](N)C(=O)O)c[nH]c12; 2Nal = N[C@@H](Cc1ccc2ccccc2c1)C(=O)O; AEF = NCCOc1ccc(C[C@H](N)C(=O)O)cc1; 3Pal = N[C@@H](Cc1cccnc1)C(=O)O; Pen = CC(C)(S)[C@H](N)C(=O)O; Thp = NC1(C(=O)O)CCOCC1; Sar = CNCC(=O)O

deucravacitinib: in assay [1], the “Effect on IL-12– and IL-23–dependent phosphorylation of STAT4 and STAT3” value is given as “inhibits both”.
Regarding Ac-[Pen]NT[Trp(7-Me)]K(Ac)[Pen][AEF][2Nal][Thp]EN[3Pal][Sar]-NH2 (disulfide 1-6) [JNJ-77242113], the dissociation constant (Kd) in assay [2] is 17.5 pM and 12 to 23 pM.

The record behind these values is article PMC11289455 (Scientific Reports, 2024).
